Laboratory results from publication PMC9977398, “Next-generation membrane-active glycopeptide antibiotics that also inhibit bacterial cell division” (Chemical Science, 2023).

Assays:
[1] = system: GFP-FtsI expressing E. coli; set-up: method as in PMID 19995973; conditions: known inhibitor of FtsI; 22 μM in Fig. 5C; cited from earlier work
[2] = system: carbapenem-resistant A. baumannii; experiment: Murine chronic burn-wound infection model; format: in vivo, mice; conditions: 30 mg kg^−1 topically for 5 days; untreated 8 log CFU g^−1
Experimental: Fig. 6 (A) Propensity of vancomycin and VanQAmC10 to induce resistance in MRSA upon serial exposure to sub-MIC concentrations; (B) (i) experimental design for in vivo efficacy study in a murine thigh infection model, (ii) in vivo efficacy of VanQAmC10 and vancomycin against the multidrug-resistant methicillin-resistant S. aureus (MRSA) (n = 3/dose). Antibiotics were administered intraperitoneally twice at 12 h intervals at a dose of 12 mg kg^−1. (C) (i) Experimental design for in vivo efficacy study in murine burn wound infection model, (ii) in vivo efficacy of VanQAmC10 and colistin against the carbapenem-resistant A. baumannii (n = 5/dose, 1 mouse died in untreated control). VanQAmC10 and colistin were treated topically at 30 mg kg^−1 for 5 days (‘***’ indicates p < 0.0001, ‘**’ indicates p < 0.001, ‘*’ p < 0.05, p = 0.08 (n.s.) for VanQAmC10 with respect to vancomycin).
Further, the efficacy of VanQAmC10 (8) was tested in a chronic burn-wound infection model of A. baumannii.[40] Chronic burn wounds on the back of mice were infected with A. baumannii. […] Infected mice were treated with 30 mg kg^−1 of VanQAmC10 and colistin for five days consecutively. The bacterial load in the untreated group increased to 8 log CFU g^−1 six days post-infection. […] The use of colistin is however limited due to its toxicity and bacteria easily develop resistance to it. […]

CC1=C(C(=O)O)N2C(=O)[C@@H](NC(=O)[C@H](N)c3ccccc3)[C@H]2SC1 [Cephalexin]
phenotype and localization of GFP-FtsI [1]: filamentous phenotype with mislocalized GFP-FtsI protein

colistin [reference compound]
lower bacterial load as compared to the untreated mice [2]: 4.8 log CFU g^−1
